Measurements as given in article PMC8876931, “Pharmacokinetic, Metabolomic, and Stability Assessment of Ganoderic Acid H Based Triterpenoid Enriched Fraction of Ganoderma lucidum P. Karst” (Metabolites, 2022).

Tests used:
[1] = In vivo pattern recognition of TEF: UPLC–MS metabolic profiling of blood after oral administration; parameters: species or system rats; details: for Metabolites Pattern in TEF and Blood (Abundance): UPLC–MS abundance of mass; for bioavailability (absorbed in systemic circulation) of TEF constituent: after oral administration of TEF to rats, in words
Protocol: For in vivo pattern recognition of TEF, it was orally administered to rats. After its oral administration, blood samples were collected at different time intervals. Prepared plasma samples of pharmacokinetic analysis (0.5, 1, 3, 6, 12, 24, 48, and 72 h) were used for this study. Samples were analyzed by ultra-performance liquid chromatography–mass spectrometry (UPLC–MS) analysis. The UPLC–MS was performed on Water’s ACQUITY UPLCTM system (Waters Corp., Milford, MA, USA) equipped with a binary solvent delivery system, an autosampler, column manager, and a tunable MS detector (Synapt; Waters, Manchester, UK). Chromatographic separation was performed on a Water’s ACQUITY UPLC^TM BEH C18 (100.0 × 2.1 mm × 1.7 μm) column. The mobile phase used for chromatographic separation was 0.05% (v/v) formic acid in water (A) and 0.05% (v/v) formic acid in acetonitrile (B). […] The flow rate of mobile phase was 0.5 mL/min, and column temperature was set at 25 °C throughout the run time. The mass spectrometry was performed on a quadrupole orthogonal acceleration time of flight tandem mass spectrometer (Waters Q-TOF, Manchester, UK). The nebulizer gas was set to 500 L/h, the cone gas was set to 50 L/h, and the source temperature was set to 100 °C. The capillary voltage was set to 3.0 kV, and the sample cone voltage was set to […]. Argon was employed as the collision gas at a pressure of 5.3 × 10^−5 Torr. The Q-TOF was operated in positive mode with […] and 0.02 s inter-scan delay. The accurate mass and composition for the precursor ions and the fragment ions were calculated by using MassLynx v 4.1 software incorporated with the instrument. Compounds were tentatively identified from database by comparing their reported m/z values with experimental values. Focus was given to the mass ranges from 130 to 600 m/z for lanosterol type triterpenoids and general terpene hydrocarbon. The databases used for identification of compounds were MassBank and HMDB.
Metabolomic comparison was performed with respect to analysis of TEF. For that, dried TEF was dissolved in LC–MS grade methanol and analyzed with same conditions used for plasma sample analysis. […] This metabolomic analysis was based on metabolites absorbed in blood after oral administration.

[2] = Pharmacokinetic analysis of TEF in terms of GA-H after oral administration to rats (HPLC of plasma and urine); format: in vivo, Albino Wistar rats; parameters: rate of elimination (Kel): unit not given here
Protocol: Alliance HPLC system (e2695 Separation module, Waters, Milford, MA, USA) with a gradient pump integrated with adjustable wavelength programmable photodiode array detector (PDA) was employed for analysis. Chromatographic separation was executed on Hupersil […] C18 (ODS) column (150 × 4.6 mm, Phenomenex, Torrance, CA, USA), using mobile phase composed of 0.5% v/v formic acid in water (A) and methanol (B). Solvents were eluted at a flow rate of 1.0 mL/min in gradient elution program (initially 100% A, 0–5 min 90% A, 5–10 min 70% A, 10–15 min 30% A, 15–20 min 2% A, and 20–22 min 100% A). Detection was carried out in a scanning mode with 3D channel at a wavelength of 254 nm. Total run time was 25 min. The identity of the compounds was established by comparing retention time of analytical standards. The proposed developed method was further validated as per the AOAC guidelines.
Albino Wistar rats (8 weeks old, 180 ± 20 g) were obtained from the Central Animal House Facility of Jamia Hamdard. Animal housing and handling were executed in accordance with the Good Laboratory Practice (GLP) mentioned in CPCSEA guidelines. All experimental protocols were reviewed and approved by the Institutional Animal Ethics Committee (Registration No 173/GO/RE/S/2000/CPCSEA; approval number 1472). All animals were housed in polypropylene cages (not more than three animals per cage) with proper water and feed and were allowed to acclimatize with specified conditions (25 ± 3 °C and 60 ± 5%RH) for a week before the experiment. […] After oral administration, blood samples were collected from retro-orbital plexus by using heparinized capillaries at 0 (pre-dose), 0.5, 1, 1.5, 2, 4, 6, 8, 10, 12, 16, 24, and 30 h. Blood samples were collected in EDTA tubes and centrifuged at 7000 rpm to get plasma. The separated plasma was stored at −60 °C until analysis. […] The collected urine from each animal was pooled for analysis.
Liquid–liquid extraction was used for extraction of GA-H from plasma. In 100 µL of plasma, 500 µL of ice-cold methanol was added, vortexed, and incubated at −60 °C for 8 h. After incubation, it was brought to room temperature and centrifuged at 10,000 rpm for 10 min. The supernatant was separated and dried by passing […]. The dried extract was re-suspended with 100 μL of LC–MS grade methanol, sonicated for 10 min, centrifuged at 14,000 rpm for 10 min, supernatant separated, and then transferred into sample vials having insert for analysis. Similar sample preparation protocol and storage conditions were used for urine through liquid–liquid extraction.
The maximum plasma concentration (Cmax) and time to attain maximum concentration (Tmax) were directly assessed by plasma concentration–time graph. Other pharmacokinetic parameters, such as AUC, AUC0–t, AUC0–∞, half-life (t1/2), elimination rate constant (Kel), and volume of distribution (Vd), were calculated from plasma concentration vs. time profile response curve by non-compartmental analysis, using software Pkf Excel plug-in program.

[3] = test system: breast cancer cells; parameters: method as in PMID 18425349; details: by modulating AP-1 and NF-κB signaling; cited from earlier work
[4] = blood 1 h after oral TEF to rats
[5] = blood 3 h after oral TEF to rats
[6] = blood 6 h after oral TEF to rats
[7] = blood 12 h after oral TEF to rats
[8] = blood 24 h after oral TEF to rats
[9] = Albino Wistar, rat, plasma, po, 85 mg/kg
[10] = GA-H in rat plasma after oral TEF 85 mg/Kg
[11] = GA-H, rats, oral TEF 85 mg/Kg, non-compartmental analysis
[12] = blood 0.5 h after oral TEF to rats
[13] = blood 48 h after oral TEF to rats
[14] = blood 72 h after oral TEF to rats

| SMILES | Metabolites Pattern in TEF and Blood (Abundance) [1, 4] | Metabolites Pattern in TEF and Blood (Abundance) [1, 5] | Metabolites Pattern in TEF and Blood (Abundance) [1, 6] | Metabolites Pattern in TEF and Blood (Abundance) [1, 7] | Metabolites Pattern in TEF and Blood (Abundance) [1, 8] | effect on growth and invasive behavior of breast cancer cells [3] | bioavailability (absorbed in systemic circulation) of TEF constituent [1] | Metabolites Pattern in TEF and Blood (Abundance) [1, 13] | Metabolites Pattern in TEF and Blood (Abundance) [1, 14] | other results |
| --- | --- | --- | --- | --- | --- | --- | --- | --- | --- | --- |
| CC(CC(=O)C[C@@H](C)[C@H]1CC(=O)[C@@]2(C)C3=C(C(=O)C[C@]12C)[C@@]1(C)CCC(=O)C(C)(C)[C@@H]1C[C@@H]3O)C(=O)O (some centres unmarked) [Ganoderic acid D] | 36,786 | 37,654 | 27,689 | 26,657 | 21,234 | – | – | – | – | – |
| CC(=O)O[C@@H]1C(=O)C2=C(C(=O)C[C@H]3C(C)(C)[C@@H](O)CC[C@]23C)[C@]2(C)C(=O)C[C@H]([C@H](C)CC(=O)CC(C)C(=O)O)[C@@]12C (some centres unmarked) [GA-H, ganoderic acid H] | 45,675 | 54,675 | 32,456 | 24,978 | – | suppress the growth and invasive behavior | – | – | – | AUC(0-inf) [2, 9]: 9840 ± 157 ng·h/mL; AUC(0-t) [2, 9]: 9800 ± 170 ng·h/mL; half-life ([2]; Albino Wistar, rat, plasma, po, 85 mg/kg, read-out: half-life in blood (converted)): 13.2 h; Cmax ([2]; Albino Wistar, rat, plasma, po, 85 mg/kg, read-out: maximum plasma concentration (Cmax)): 2510 ng/mL; MRT ([2]; Albino Wistar, rat, plasma, po, 85 mg/kg, read-out: mean residence time in blood): 5.42 h; relative exposure AUC0–∞/D [2, 10]: 1968.9 ± 32.5 ng·h/mL/mg; relative exposure Cmax/D [2, 10]: 501.9 ± 25.4 ng/mL/mg; time to peak plasma concentration (Tmax) [2, 10]: approximately one; time up to which a quantifiable amount was sustained in plasma ([2]; GA-H, rats, oral TEF): up to 12 h; rate of elimination (Kel) ([2]; GA-H, rats, oral TEF 85 mg/Kg): 0.05; clearance (CL) [2, 11]: 507.9 ± 25.6 mL/h; volume of distribution (Vd) [2, 11]: 9660.3 ± 111.5 mL; detection in urine ([2]; rat urine collected at 4, 12 and 24 h after oral TEF, pooled): no GA-H was detected; Metabolites Pattern in TEF and Blood (Abundance) [1, 12]: 35,876 |
| OC[C@H]1OC(c2c(O)cc3c(c2O)C[C@@H](O)[C@@H](c2ccc(O)c(O)c2)O3)[C@H](O)[C@@H](O)[C@@H]1O (some centres unmarked) [Epicatechin-6-glucoside] | 36,783 | 25,056 | 26,578 | 22,346 | 21,324 | – | bioavailable | 24,569 | 22,345 | Metabolites Pattern in TEF and Blood (Abundance) [1, 12]: 19,876 |
| CC(C)CCCCCCCCCCCC(=O)O [13-methylmyristic acid] | – | 23,412 | 25,473 | 21,675 | 16,734 | – | bioavailable | 9835 | 5642 | – |
| CCCCC/C=C\C/C=C\CCCCCCCC(=O)O [Linoleic acid] | – | 23,451 | 21,543 | 18,756 | 12,112 | – | bioavailable | 8453 | 5641 | – |
| CC(=O)O[C@@H]1C(=O)C2=C(C(=O)C[C@H]3C(C)(C)C(=O)CC[C@]23C)[C@]2(C)C(=O)C[C@H]([C@H](C)CC(=O)CC(C)C(=O)O)[C@@]12C (some centres unmarked) [GA-F, ganoderic acid F] | – | – | – | – | – | suppress the growth and invasive behavior | – | – | – | – |
| NC(=O)CC[C@H](N=C/C=C1/C=C(C(=O)O)N[C@H](C(=O)O)C1)C(=O)O [Glutamine-betaxanthin] | – | – | – | – | – | – | absorbed in the systemic circulation | – | – | – |
| C[C@H](CC(=O)C[C@@H](C)[C@H]1C[C@H](O)[C@@]2(C)C3=C(C(=O)C[C@]12C)[C@@]1(C)CCC(=O)C(C)(C)[C@@H]1C[C@@H]3O)C(=O)O [Ganoderic acid A] | 45,647 | 37,652 | 29,143 | 22,987 | 21,548 | suppress the growth and invasive behavior | bioavailable | – | – | – |
